Assay results as given in patent US9686986B2, “Herbicidal compounds” (SYNGENTA LIMITED, priority 2011, dated 2017).

Key:
Experiment in all cases: Glasshouse herbicide test, pre- and post-emergence, percentage damage
Type in all cases: in vivo
[1] = system: Alopecurus myosuroides (ALOMY); details: 1000 g/h, evaluated after 13 days, five point scale; for percentage damage caused to the plant, ALOMY, POST Application: post-emergence; for percentage damage caused to the plant, ALOMY, PRE Application: pre-emergence
Method: (§1) Seeds of a variety of test species are sown in standard soil in pots (Alopecurus myosuroides (ALOMY), Setaria faberi (SETFA), Stellaria media (STEME), Echinochloa crus-galli (ECHCG), Solanum nigrum (SOLNI), Amaranthus retoflexus (AMARE), Ipomoea hederacea (IPOHE), Lolium perenne (LOLPE). After cultivation for one day (pre-emergence) or after 8 days cultivation (post-emergence) under controlled conditions in a glasshouse (at 24/16° C., day/night; 14 hours light; 65% humidity), the plants are sprayed with an aqueous spray solution derived from the formulation of the technical active ingredient in acetone/water (50:50) solution containing 0.5% Tween 20 (polyoxyethelyene sorbitan monolaurate, CAS RN 9005-64-5). Compounds ae applied at 1000 g/h. The test plants are then grown in a glasshouse under controlled conditions in a glasshouse (at 24/16° C., day/night; 14 hours light; 65% humidity) and watered twice daily. After 13 days for pre and post-emergence, the test is evaluated for the percentage damage caused to the plant. The biological activities are shown in the following table on a five point scale (5=80-100%; 4=60-79%; 3=40-59%; 2=20-39%; 1=0-19%).

[2] = system: Amaranthus retoflexus (AMARE); details: 1000 g/h, evaluated after 13 days, five point scale (Table B1); for percentage damage caused to the plant, AMARE, POST Application: post-emergence; for percentage damage caused to the plant, AMARE, PRE Application: pre-emergence
Method: as §1

[3] = system: Echinochloa crus-galli (ECHCG); details: 1000 g/h, evaluated after 13 days, five point scale; for percentage damage caused to the plant, ECHCG, POST Application: post-emergence; for percentage damage caused to the plant, ECHCG, PRE Application: pre-emergence
Method: as §1

[4] = system: Ipomoea hederacea (IPOHE); details: 1000 g/h, evaluated after 13 days, five point scale; for percentage damage caused to the plant, IPOHE, POST Application: post-emergence; for percentage damage caused to the plant, IPOHE, PRE Application: pre-emergence
Method: as §1

Setaria faberi (SETFA) = details: 1000 g/h, evaluated after 13 days, five point scale; for percentage damage caused to the plant, SETFA, POST Application: post-emergence; for percentage damage caused to the plant, SETFA, PRE Application: pre-emergence
Method: as §1

Solanum nigrum (SOLNI) = details: 1000 g/h, evaluated after 13 days, five point scale; for percentage damage caused to the plant, SOLNI, POST Application: post-emergence; for percentage damage caused to the plant, SOLNI, PRE Application: pre-emergence
Method: as §1

Row | Compound | percentage damage caused to the plant, ALOMY, POST Application [1] | percentage damage caused to the plant, ALOMY, PRE Application [1] | percentage damage caused to the plant, AMARE, POST Application [2] | percentage damage caused to the plant, AMARE, PRE Application [2] | percentage damage caused to the plant, ECHCG, POST Application [3] | percentage damage caused to the plant, ECHCG, PRE Application [3] | percentage damage caused to the plant, IPOHE, POST Application [4] | percentage damage caused to the plant, IPOHE, PRE Application [4] | percentage damage caused to the plant, SETFA, POST Application (Setaria faberi (SETFA)) | percentage damage caused to the plant, SETFA, PRE Application (Setaria faberi (SETFA)) | percentage damage caused to the plant, SOLNI, POST Application (Solanum nigrum (SOLNI)) | percentage damage caused to the plant, SOLNI, PRE Application (Solanum nigrum (SOLNI))
1 | Cn1nnnc1NC(=O)c1ccc(S(C)(=O)=O)c(COCC(F)(F)F)c1Cl [Compound 1.001] | 5 (5=80-100%) | 5 (5=80-100%) | 5 (5=80-100%) | 5 (5=80-100%) | 5 (5=80-100%) | 5 (5=80-100%) | 5 (5=80-100%) | 5 (5=80-100%) | 5 (5=80-100%) | 5 (5=80-100%) | 5 (5=80-100%) | 5 (5=80-100%)
2 | Cn1nnnc1NC(=O)c1ccc(C(F)(F)F)cc1S(C)(=O)=O [Compound 1.003] | 5 (5=80-100%) | 5 (5=80-100%) | 5 (5=80-100%) | 5 (5=80-100%) | 5 (5=80-100%) | 5 (5=80-100%) | 5 (5=80-100%) | 5 (5=80-100%) | 5 (5=80-100%) | 5 (5=80-100%) | 5 (5=80-100%) | 5 (5=80-100%)
3 | CCCn1nnnc1NC(=O)c1cc(Cl)ccc1Cl [Compound 1.004] | 1 (1=0-19%) | 1 (1=0-19%) | 4 (4=60-79%) | 5 (5=80-100%) | 1 (1=0-19%) | 1 (1=0-19%) | 5 (5=80-100%) | 1 (1=0-19%) | 1 (1=0-19%) | 1 (1=0-19%) | 5 (5=80-100%) | 4 (4=60-79%)
4 | CCc1nc(C(C)F)ccc1C(=O)Nc1nnnn1C (stereo not drawn) [Compound 1.005] | 2 (2=20-39%) | 3 (3=40-59%) | 5 (5=80-100%) | 5 (5=80-100%) | 5 (5=80-100%) | 5 (5=80-100%) | 5 (5=80-100%) | 5 (5=80-100%) | 2 (2=20-39%) | 3 (3=40-59%) | 5 (5=80-100%) | 5 (5=80-100%)
5 | COCCOCc1nc(C(C)(F)F)ccc1C(=O)Nc1nnnn1C [Compound 1.008] | 5 (5=80-100%) | 5 (5=80-100%) | 5 (5=80-100%) | 5 (5=80-100%) | 5 (5=80-100%) | 5 (5=80-100%) | 5 (5=80-100%) | 5 (5=80-100%) | 5 (5=80-100%) | 5 (5=80-100%) | 5 (5=80-100%) | 5 (5=80-100%)
6 | Cn1nnnc1NC(=O)c1cc(Cl)ccc1C(F)(F)F [Compound 1.009] | 5 (5=80-100%) | 5 (5=80-100%) | 5 (5=80-100%) | 5 (5=80-100%) | 2 (2=20-39%) | 2 (2=20-39%) | 5 (5=80-100%) | 4 (4=60-79%) | 1 (1=0-19%) | 1 (1=0-19%) | 5 (5=80-100%) | 5 (5=80-100%)
7 | Cn1nnnc1NC(=O)c1cc(F)ccc1C(F)(F)F [Compound 1.010] | 5 (5=80-100%) | 5 (5=80-100%) | 5 (5=80-100%) | 5 (5=80-100%) | 4 (4=60-79%) | 4 (4=60-79%) | 5 (5=80-100%) | 5 (5=80-100%) | 2 (2=20-39%) | 2 (2=20-39%) | 5 (5=80-100%) | 5 (5=80-100%)
8 | Cn1nnnc1NC(=O)c1cc(F)c(F)cc1[N+](=O)[O-] [Compound 1.011] | 1 (1=0-19%) | 1 (1=0-19%) | 3 (3=40-59%) | 5 (5=80-100%) | 2 (2=20-39%) | 1 (1=0-19%) | 2 (2=20-39%) | 1 (1=0-19%) | 1 (1=0-19%) | 1 (1=0-19%) | 2 (2=20-39%) | 1 (1=0-19%)
9 | Cn1nnnc1NC(=O)c1cc(Br)c(Cl)cc1F [Compound 1.012] | 2 (2=20-39%) | 1 (1=0-19%) | 5 (5=80-100%) | 4 (4=60-79%) | 3 (3=40-59%) | 1 (1=0-19%) | 5 (5=80-100%) | 1 (1=0-19%) | 4 (4=60-79%) | 1 (1=0-19%) | 4 (4=60-79%) | 1 (1=0-19%)
